Drawing on patent US4945114A, “Therapeutic agents containing enantiomers of propafenone” (priority 1987, dated 1990), this text covers ED50 and Ki for three compounds.

For assay [1], the system named is aconitine-induced arrhythmia. Put plainly: Antiarrhythmic action in aconitine-induced arrhythmia of the rat. The format is in vivo. The settings on record: iv, 5 min, read-out: Antiarrhythmic effect on aconitine-induced arrhythmias ED 50%. Here is the method:
2. Determination of the antiarrhythmic action in aconitine-induced arrhythmia of the rat
The experimental animals used were male Sprague-Dawley rats weighing from 180 to 300 g. Anaesthesia was effected intraperitoneally with 100 mg/kg of thiobutabarbital. To induce arrhythmias, aconitine was infused at a rate of 5 μg per kg per minute. The test substances were administered intravenously 2 minutes before the beginning of the aconitine infusion. The parameter measured was the duration of the aconitine infusion when the first arrhythmias (loss of P, ventricular extrasystoles and tachycardias) appeared in the ECG of the animals. In untreated animals, the aconitine-induced arrhythmia occurred after 3.3±0.11 minutes (n=120). The ED 50% was determined from the linear relationship between log dose (mg/kg) of the test substances and the relative prolongation of aconitine infusion duration (Δ%).

Assay [2] has as its target T1, β2-receptor subtype (rat lung membranes, 25% of β1, 75% of β2) (Rattus norvegicus, UniProt P10608).
T1 construct: rat lung membranes; from tissue; host or cells: rat lung membranes
Briefly: Inhibition of specific 3H-dihydroalprenolol binding in rat lung membranes. Particulars: 1 nM 3H-dihydroalprenolol, confidence limits in brackets, read-out: Lung Ki (competition constant). How it is done: Two experiments were carried out with three batches.

Molecules are shown by their SMILES. Structures can show the parent of a compound that is named as a salt.

One may read the Ki as a measure of affinity in units of concentration, obtained from inhibition or displacement.

T1 sequence (P10608 whole entry): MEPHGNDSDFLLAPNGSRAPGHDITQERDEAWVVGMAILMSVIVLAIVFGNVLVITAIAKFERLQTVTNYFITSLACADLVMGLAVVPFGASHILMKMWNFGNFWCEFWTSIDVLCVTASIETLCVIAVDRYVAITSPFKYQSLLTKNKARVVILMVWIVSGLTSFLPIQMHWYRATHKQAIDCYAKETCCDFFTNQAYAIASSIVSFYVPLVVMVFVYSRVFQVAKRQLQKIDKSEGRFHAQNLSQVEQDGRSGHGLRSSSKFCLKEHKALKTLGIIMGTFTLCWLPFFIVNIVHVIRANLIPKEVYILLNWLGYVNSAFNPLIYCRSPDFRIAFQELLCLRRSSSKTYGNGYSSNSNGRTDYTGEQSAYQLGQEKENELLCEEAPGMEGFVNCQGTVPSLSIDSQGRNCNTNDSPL

For the compound `CCCNCC(O)COc1ccccc1C(=O)CCc1ccccc1` (racemic) [(R,S)-propafenone, 2'-(2-hydroxy-3-propylaminopropoxy)-3-phenylpropiophenone, reference compound], the ED50 in assay [1] was 0.724 mg/kg. For the same compound, in assay [2], the Ki worked out at 32 nM.
In the same order, the values of `CCCNC[C@H](O)COc1ccccc1C(=O)CCc1ccccc1` [(S)-propafenone, (S)-propafenone . HCl] are 0.676 mg/kg and 14 nM.
`CCCNC[C@@H](O)COc1ccccc1C(=O)CCc1ccccc1` [(R)-propafenone, (R)-propafenone . HCl]: the ED50 in assay [1] worked out at 0.801 mg/kg. The inhibition constant (Ki) in assay [2] amounted to 257 nM.
